Literature values, collected in publication PMC4492579, “Potent and Selective Triazole-Based Inhibitors of the Hypoxia-Inducible Factor Prolyl-Hydroxylases with Activity in the Murine Brain” (PLoS ONE, 2015).

Key:
Parameters in all cases: method as in PMID 26682036
Conditions in all cases: cited from earlier work
JMJD1A (KDM3A) = molecular target: T1, JMJD1A (KDM3A) (Homo sapiens, UniProt Q9Y4C1)
T1 sequence (Q9Y4C1 1-1321): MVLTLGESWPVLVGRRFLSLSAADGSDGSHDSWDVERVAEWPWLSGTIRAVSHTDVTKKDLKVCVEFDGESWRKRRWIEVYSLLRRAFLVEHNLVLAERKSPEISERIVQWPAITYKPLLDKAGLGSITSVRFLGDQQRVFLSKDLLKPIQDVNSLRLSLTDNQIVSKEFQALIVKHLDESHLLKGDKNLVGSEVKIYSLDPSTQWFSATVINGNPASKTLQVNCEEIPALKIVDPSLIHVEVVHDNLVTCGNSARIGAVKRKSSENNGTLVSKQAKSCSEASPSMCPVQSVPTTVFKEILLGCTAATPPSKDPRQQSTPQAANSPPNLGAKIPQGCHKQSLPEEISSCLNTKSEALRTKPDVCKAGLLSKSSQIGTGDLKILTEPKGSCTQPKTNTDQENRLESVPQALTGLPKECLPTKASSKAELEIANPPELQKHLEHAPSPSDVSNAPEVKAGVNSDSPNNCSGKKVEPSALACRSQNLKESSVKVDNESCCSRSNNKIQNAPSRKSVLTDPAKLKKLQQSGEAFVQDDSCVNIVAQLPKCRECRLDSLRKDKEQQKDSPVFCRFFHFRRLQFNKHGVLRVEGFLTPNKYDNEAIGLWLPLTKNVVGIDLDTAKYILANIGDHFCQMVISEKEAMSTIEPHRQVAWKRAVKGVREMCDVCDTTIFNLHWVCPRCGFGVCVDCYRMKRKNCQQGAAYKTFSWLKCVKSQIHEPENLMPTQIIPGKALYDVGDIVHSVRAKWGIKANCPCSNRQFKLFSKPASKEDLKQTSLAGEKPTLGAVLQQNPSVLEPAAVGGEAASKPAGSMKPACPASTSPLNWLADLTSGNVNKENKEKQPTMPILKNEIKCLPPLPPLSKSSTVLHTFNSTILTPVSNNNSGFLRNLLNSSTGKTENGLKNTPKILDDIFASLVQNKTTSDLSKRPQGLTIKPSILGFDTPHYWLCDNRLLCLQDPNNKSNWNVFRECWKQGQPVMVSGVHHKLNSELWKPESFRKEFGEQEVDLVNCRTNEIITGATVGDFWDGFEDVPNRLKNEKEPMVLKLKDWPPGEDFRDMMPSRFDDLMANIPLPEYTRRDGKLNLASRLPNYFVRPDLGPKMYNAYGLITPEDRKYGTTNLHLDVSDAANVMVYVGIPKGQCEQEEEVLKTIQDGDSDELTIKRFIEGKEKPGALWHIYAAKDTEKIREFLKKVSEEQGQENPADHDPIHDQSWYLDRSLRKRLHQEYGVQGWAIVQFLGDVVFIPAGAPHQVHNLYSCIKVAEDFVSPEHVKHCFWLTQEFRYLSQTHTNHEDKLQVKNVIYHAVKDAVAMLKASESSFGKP

JARID1C (KDM5C) = JARID1C (KDM5C) (Homo sapiens, UniProt P41229)
FBXL11 (KDM2A) = molecular target: T2, FBXL11 (KDM2A) (Homo sapiens, UniProt Q9Y2K7)
T2 sequence (Q9Y2K7 1-1162): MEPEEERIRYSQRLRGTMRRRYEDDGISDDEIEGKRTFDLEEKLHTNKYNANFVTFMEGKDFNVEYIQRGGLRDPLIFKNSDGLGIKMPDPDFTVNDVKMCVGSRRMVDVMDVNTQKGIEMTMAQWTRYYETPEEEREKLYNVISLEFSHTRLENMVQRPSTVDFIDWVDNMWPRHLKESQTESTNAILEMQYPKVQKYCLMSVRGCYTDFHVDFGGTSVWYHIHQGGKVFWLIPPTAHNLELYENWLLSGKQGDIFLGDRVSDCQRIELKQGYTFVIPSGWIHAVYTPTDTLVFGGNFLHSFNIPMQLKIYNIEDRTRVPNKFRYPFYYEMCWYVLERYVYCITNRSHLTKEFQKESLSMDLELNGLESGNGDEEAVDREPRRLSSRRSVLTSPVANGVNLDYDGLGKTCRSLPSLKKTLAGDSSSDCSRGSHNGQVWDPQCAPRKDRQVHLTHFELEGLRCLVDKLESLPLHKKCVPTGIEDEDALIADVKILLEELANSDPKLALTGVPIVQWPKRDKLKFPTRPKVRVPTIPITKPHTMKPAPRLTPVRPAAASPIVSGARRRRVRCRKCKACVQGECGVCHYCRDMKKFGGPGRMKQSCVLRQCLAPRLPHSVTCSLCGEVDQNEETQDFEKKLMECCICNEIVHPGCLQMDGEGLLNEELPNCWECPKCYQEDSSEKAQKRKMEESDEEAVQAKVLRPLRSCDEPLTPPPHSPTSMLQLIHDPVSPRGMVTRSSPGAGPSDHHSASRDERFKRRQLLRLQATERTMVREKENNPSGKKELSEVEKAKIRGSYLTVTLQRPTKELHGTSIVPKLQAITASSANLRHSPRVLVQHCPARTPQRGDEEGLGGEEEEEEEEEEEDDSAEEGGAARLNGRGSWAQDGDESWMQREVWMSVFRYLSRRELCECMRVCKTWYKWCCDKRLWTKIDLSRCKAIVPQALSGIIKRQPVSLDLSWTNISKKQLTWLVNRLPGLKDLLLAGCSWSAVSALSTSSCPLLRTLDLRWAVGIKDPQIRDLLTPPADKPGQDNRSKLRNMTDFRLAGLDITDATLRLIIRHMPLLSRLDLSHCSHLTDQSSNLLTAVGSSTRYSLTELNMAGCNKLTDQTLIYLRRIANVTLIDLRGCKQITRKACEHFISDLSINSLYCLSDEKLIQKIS

JMJD3 (KDM6B) = JMJD3 (KDM6B) (Homo sapiens, UniProt O15054)
Chain of JMJD3 (KDM6B) (O15054 whole entry): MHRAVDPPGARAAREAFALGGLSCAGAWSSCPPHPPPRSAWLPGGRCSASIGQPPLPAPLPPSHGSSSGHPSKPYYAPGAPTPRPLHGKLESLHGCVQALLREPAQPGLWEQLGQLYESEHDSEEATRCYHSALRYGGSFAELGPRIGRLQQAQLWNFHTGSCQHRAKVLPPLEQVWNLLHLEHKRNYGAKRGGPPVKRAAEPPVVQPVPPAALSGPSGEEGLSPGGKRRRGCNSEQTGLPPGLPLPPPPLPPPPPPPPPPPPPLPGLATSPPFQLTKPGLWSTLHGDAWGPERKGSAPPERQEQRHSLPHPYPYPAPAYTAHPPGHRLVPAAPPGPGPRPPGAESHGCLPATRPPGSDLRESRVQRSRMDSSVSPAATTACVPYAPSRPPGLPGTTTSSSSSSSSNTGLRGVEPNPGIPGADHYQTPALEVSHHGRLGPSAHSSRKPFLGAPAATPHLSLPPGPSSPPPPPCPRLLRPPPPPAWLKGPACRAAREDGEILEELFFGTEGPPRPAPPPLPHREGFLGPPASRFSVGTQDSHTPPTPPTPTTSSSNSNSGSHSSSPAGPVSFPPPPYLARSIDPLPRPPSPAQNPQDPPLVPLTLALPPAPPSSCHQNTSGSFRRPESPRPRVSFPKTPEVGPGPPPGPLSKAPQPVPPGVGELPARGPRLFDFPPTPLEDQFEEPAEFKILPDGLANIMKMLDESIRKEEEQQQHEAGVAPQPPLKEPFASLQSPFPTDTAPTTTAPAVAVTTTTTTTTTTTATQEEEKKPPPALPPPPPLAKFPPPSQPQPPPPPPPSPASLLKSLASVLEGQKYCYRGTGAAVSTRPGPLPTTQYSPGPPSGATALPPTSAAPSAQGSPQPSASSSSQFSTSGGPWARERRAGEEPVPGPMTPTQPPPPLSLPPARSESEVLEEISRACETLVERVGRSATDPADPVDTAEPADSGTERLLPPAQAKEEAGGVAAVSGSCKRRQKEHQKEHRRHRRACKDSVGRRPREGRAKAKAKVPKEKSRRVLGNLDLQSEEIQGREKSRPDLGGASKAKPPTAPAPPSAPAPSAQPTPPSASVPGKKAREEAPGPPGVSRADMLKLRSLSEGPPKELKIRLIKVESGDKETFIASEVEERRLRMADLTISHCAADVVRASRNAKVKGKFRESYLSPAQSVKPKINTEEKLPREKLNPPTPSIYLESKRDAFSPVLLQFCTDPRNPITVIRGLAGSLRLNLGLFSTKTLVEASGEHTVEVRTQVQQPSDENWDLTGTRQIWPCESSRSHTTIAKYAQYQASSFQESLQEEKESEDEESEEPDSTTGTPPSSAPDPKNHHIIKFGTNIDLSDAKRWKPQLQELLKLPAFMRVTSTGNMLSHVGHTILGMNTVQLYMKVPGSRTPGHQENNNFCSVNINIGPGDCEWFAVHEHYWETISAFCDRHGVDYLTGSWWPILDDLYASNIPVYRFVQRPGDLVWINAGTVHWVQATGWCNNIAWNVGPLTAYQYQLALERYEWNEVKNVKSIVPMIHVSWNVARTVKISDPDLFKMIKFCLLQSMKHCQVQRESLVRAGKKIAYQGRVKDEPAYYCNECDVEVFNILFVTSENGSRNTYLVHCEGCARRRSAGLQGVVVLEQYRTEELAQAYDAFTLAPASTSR

Chain of JARID1C (KDM5C) (P41229 whole entry): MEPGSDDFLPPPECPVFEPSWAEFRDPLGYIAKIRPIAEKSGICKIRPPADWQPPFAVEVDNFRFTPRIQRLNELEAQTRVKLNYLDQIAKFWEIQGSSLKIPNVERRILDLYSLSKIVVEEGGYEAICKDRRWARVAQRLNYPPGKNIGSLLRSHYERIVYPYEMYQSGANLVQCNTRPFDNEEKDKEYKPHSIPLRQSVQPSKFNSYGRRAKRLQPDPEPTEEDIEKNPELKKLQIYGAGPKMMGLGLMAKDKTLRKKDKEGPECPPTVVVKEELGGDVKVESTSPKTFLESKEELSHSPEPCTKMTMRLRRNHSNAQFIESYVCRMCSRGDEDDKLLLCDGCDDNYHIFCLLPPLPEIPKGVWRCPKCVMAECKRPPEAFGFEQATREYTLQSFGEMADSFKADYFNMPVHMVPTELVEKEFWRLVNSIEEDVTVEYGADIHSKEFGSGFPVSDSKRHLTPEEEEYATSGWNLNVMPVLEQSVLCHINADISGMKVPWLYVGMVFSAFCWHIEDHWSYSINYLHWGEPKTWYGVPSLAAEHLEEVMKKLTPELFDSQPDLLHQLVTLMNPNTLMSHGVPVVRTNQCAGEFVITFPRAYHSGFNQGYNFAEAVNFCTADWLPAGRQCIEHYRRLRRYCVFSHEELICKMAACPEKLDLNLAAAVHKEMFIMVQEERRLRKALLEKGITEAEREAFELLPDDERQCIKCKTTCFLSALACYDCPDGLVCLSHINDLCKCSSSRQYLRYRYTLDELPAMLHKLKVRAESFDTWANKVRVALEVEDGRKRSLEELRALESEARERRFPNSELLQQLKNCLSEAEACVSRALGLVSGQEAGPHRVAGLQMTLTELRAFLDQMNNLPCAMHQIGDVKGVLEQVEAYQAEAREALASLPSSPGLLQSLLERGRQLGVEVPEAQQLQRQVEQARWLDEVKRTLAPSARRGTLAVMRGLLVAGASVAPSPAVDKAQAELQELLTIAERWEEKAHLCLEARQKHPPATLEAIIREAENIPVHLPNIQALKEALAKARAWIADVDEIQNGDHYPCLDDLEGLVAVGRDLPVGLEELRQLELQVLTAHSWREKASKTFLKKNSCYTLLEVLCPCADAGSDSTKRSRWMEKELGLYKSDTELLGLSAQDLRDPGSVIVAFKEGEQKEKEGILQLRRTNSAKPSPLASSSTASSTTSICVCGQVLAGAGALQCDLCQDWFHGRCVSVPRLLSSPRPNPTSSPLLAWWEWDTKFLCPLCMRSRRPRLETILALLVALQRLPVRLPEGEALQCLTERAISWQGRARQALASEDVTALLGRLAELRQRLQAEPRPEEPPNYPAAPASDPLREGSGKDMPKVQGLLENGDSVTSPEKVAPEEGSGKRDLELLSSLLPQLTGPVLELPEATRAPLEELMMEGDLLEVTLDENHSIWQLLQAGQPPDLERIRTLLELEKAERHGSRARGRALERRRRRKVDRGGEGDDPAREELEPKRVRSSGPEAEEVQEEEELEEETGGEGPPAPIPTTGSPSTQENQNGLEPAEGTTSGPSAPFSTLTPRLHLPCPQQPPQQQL

O=C(O)CNC(=O)c1c(O)c2ccccc2n(Cc2ccccc2)c1=O [IOX2]
IC50 (JMJD1A (KDM3A)): > 100 µM
IC50 (JARID1C (KDM5C)): 159 µM
IC50 (FBXL11 (KDM2A)): 52 µM
IC50 (JMJD3 (KDM6B)): > 100 µM
